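Following 48 hours of exposure in 96-well plates, responses at five concentrations were used to interpolate endpoints linearly. TGI marks complete inhibition of growth.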
Key:
Assay in all cases: NCI anticancer screen, dose series, 48 h
[1] = test system: 786-0 renal
[2] = test system: A498 renal
[3] = test system: A549 NSCLC
[4] = test system: ACHN renal
[5] = test system: BT-549 breast
[6] = test system: CAKI-1 renal
[7] = test system: CCRF-CEM leukemia
[8] = test system: COLO 205 colon
[9] = test system: DU-145 prostate
[10] = test system: EKVX NSCLC
[11] = test system: HCC-2998 colon
[12] = test system: HCT-116 colon
[13] = test system: HCT-15 colon
[14] = test system: HL-60(TB) leukemia
[15] = test system: HOP-62 NSCLC
[16] = test system: HOP-92 NSCLC
[17] = test system: HS 578T breast
[18] = test system: HT29 colon
[19] = test system: IGROV1 ovarian
[20] = test system: K-562 leukemia
[21] = test system: KM12 colon
[22] = test system: LOX IMVI melanoma
[23] = test system: M14 melanoma
[24] = test system: MALME-3M melanoma
[25] = test system: MCF7 breast
[26] = test system: MDA-MB-231 breast
[27] = test system: MDA-MB-435
[28] = test system: MDA-N
[29] = test system: MOLT-4 leukemia
[30] = test system: NCI-H226 lung
[31] = test system: NCI-H23 lung
[32] = test system: NCI-H460 lung
[33] = test system: NCI-H522 lung
[34] = test system: NCI/ADR-RES ovarian
[35] = test system: OVCAR-3 ovarian
[36] = test system: OVCAR-4 ovarian
[37] = test system: OVCAR-5 ovarian
[38] = test system: OVCAR-8 ovarian
[39] = test system: PC-3 prostate
[40] = test system: RPMI-8226 leukemia
[41] = test system: RXF 393 renal
[42] = test system: SF-268 CNS
[43] = test system: SF-295 CNS
[44] = test system: SF-539 CNS
[45] = test system: SK-MEL-2 melanoma
[46] = test system: SK-MEL-28 melanoma
[47] = test system: SK-MEL-5 melanoma
[48] = test system: SK-OV-3 ovarian
[49] = test system: SN12C renal
[50] = test system: SNB-19 CNS
[51] = test system: SNB-75 CNS
[52] = test system: SR leukemia
[53] = test system: SW-620 colon
[54] = test system: T-47D breast
[55] = test system: U251 CNS
[56] = test system: UACC-257 melanoma
[57] = test system: UACC-62 melanoma
[58] = test system: UO-31 renal
[59] = test system: TK-10 renal

Cc1cccc2c1C(=O)[C@](C)([C@]1(C)Nc3cccc(C)c3C1=O)N2
TGI [1]: > 100 µM | TGI [2]: > 100 µM | TGI [3]: > 100 µM | TGI [4]: > 100 µM | TGI [5]: 62.5 µM | TGI [6]: 69.2 µM | TGI [7]: 48.3 µM | TGI [8]: 44.6 µM | TGI [9]: > 100 µM | TGI [10]: 71.7 µM | TGI [11]: > 100 µM | TGI [12]: > 100 µM | TGI [13]: > 100 µM | TGI [14]: 540 nM | TGI [15]: 84.9 µM | TGI [16]: 75.7 µM | TGI [17]: 67.8 µM | TGI [18]: > 100 µM | TGI [19]: > 100 µM | TGI [20]: > 100 µM | TGI [21]: > 100 µM | TGI [22]: > 100 µM | TGI [23]: > 100 µM | TGI [24]: > 100 µM | TGI [25]: > 100 µM | TGI [26]: > 100 µM | TGI [27]: 35.7 µM | TGI [28]: 63 µM | TGI [29]: 72.6 µM | TGI [30]: > 100 µM | TGI [31]: 77.4 µM | TGI [32]: > 100 µM | TGI [33]: 80.9 µM | TGI [34]: > 100 µM | TGI [35]: 83.3 µM | TGI [36]: > 100 µM | TGI [37]: 58 µM | TGI [38]: 72.8 µM | TGI [39]: > 100 µM | TGI [40]: 53.7 µM | TGI [41]: > 100 µM | TGI [42]: 55.8 µM | TGI [43]: 68.9 µM | TGI [44]: 74.9 µM | TGI [45]: 69.2 µM | TGI [46]: > 100 µM | TGI [47]: > 100 µM | TGI [48]: 76.6 µM | TGI [49]: > 100 µM | TGI [50]: > 100 µM | TGI [51]: 41.2 µM | TGI [52]: 93.5 µM | TGI [53]: > 100 µM | TGI [54]: 87.9 µM | TGI [55]: > 100 µM | TGI [56]: > 100 µM | TGI [57]: > 100 µM | TGI [58]: 51.8 µM

Cc1cc(C)nc(NS(=O)(=O)c2ccc(NNc3c4ccccc4nc4c(C(=O)Nc5ccc(S(N)(=O)=O)cc5)cccc34)cc2)n1
TGI [1]: > 100 µM | TGI [3]: > 100 µM | TGI [4]: > 100 µM | TGI [5]: > 100 µM | TGI [6]: > 100 µM | TGI [7]: 83.6 µM | TGI [8]: > 100 µM | TGI [9]: > 100 µM | TGI [10]: > 100 µM | TGI [11]: 84.3 µM | TGI [12]: > 100 µM | TGI [13]: > 100 µM | TGI [14]: > 100000 nM | TGI [15]: > 100 µM | TGI [16]: > 100 µM | TGI [17]: > 100 µM | TGI [18]: > 100 µM | TGI [19]: > 100 µM | TGI [20]: > 100 µM | TGI [21]: > 100 µM | TGI [22]: > 100 µM | TGI [23]: > 100 µM | TGI [24]: > 100 µM | TGI [25]: > 100 µM | TGI [26]: 89 µM | TGI [27]: > 100 µM | TGI [28]: > 100 µM | TGI [29]: > 100 µM | TGI [30]: > 100 µM | TGI [31]: > 100 µM | TGI [32]: > 100 µM | TGI [33]: 85.8 µM | TGI [34]: > 100 µM | TGI [35]: > 100 µM | TGI [36]: > 100 µM | TGI [37]: > 100 µM | TGI [38]: > 100 µM | TGI [39]: 32.9 µM | TGI [40]: > 100 µM | TGI [41]: > 100 µM | TGI [42]: > 100 µM | TGI [43]: > 100 µM | TGI [44]: > 100 µM | TGI [45]: 46.7 µM | TGI [46]: 92.3 µM | TGI [47]: > 100 µM | TGI [48]: > 100 µM | TGI [49]: > 100 µM | TGI [50]: > 100 µM | TGI [51]: 33 µM | TGI [52]: 73.3 µM | TGI [53]: > 100 µM | TGI [54]: > 100 µM | TGI [59]: > 100 µM | TGI [55]: 70.3 µM | TGI [56]: > 100 µM | TGI [57]: > 100 µM | TGI [58]: > 100 µM

Reference: PubChem BioAssay (NCI)
